Inhibition and IC50 data for 15 molecules are collected here from patent US5925769A, “Acetylenic 1,5-diarylpyrazoles as antiinflammatory agents” (Ortho Pharmaceutical, Corp., priority 1998, dated 1999).

SMILES strings stand for the structures. Read-outs that look alike come from different tables or passages of the source.

Assay [1] has as its target T1, Sheep seminal vesicle (SSV) cyclooxygenase (Ovis aries, UniProt P05979).
T1 construct: Sheep seminal vesicle (SSV) cyclooxygenase (95% pure); purchased Biomol (Plymouth Meeting, PA); host or cells: sheep seminal vesicle
T1 sequence (P05979 25-600): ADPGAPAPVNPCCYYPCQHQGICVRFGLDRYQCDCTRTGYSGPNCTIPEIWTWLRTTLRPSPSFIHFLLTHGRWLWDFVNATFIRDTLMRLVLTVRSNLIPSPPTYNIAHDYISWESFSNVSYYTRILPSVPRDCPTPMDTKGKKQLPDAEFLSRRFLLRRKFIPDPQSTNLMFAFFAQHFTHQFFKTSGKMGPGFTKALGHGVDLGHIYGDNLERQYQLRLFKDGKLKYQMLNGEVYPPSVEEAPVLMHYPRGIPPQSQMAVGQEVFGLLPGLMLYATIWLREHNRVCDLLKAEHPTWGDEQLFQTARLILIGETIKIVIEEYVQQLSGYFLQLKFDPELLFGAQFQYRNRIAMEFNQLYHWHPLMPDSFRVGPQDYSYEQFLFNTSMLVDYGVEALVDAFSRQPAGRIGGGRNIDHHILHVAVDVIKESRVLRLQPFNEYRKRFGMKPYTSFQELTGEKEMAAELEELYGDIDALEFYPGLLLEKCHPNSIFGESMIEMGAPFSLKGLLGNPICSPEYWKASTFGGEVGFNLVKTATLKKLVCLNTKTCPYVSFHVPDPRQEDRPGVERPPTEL
The assay can be described thus: Procedure I: inhibition of sheep seminal vesicle (SSV) cyclooxygenase. The conditions noted are these: for inhibition at 10 µM: 20 min, read-out: Proc. I % inhibition. Type of assay: biochemical. The method, then: Procedure I was used to determine the ability of the compounds to inhibit cyclooxygenase. […] The enzyme was divided into 200 μL aliquots, snap frozen with liquid N2, and stored at -70° C. until immediately prior to use. […] The tubes were mixed on a vortex shaker, preincubated for 5 min at 37° C. prior to the initiation of the reaction. The reaction was started by the addition of [^14 C]-arachidonic acid (1-^14 C-AA, Amersham, Arlington Heights, Ill.) in 10 μL of methanol. Tubes were again vortexed and incubated in a water bath for 20 minutes after which the tubes were removed and the reaction stopped by acidification with the addition of 1 mL 2M formic acid. Lipophilic products were extracted with 3 mL chloroform and concentrated to dryness under N2. Each pellet was reconstituted with 40 μL of chloroform and spotted on a Whatman Silicon thin-layer chromatography plate and developed in a chromatography tank containing A-9 solvent (11:5:2:1 V:V:VV, ethyl acetate:trimethyl-pentane:acetic acid:double distilled-H2 O). Radioactive cyclooxygenase products (prostaglandin D2, prostaglandin E2, etc.) were measured using a Bioscan System 200 Imaging Scanner. Inhibition of enzyme activity was calculated by comparing the areas under the curve produced in the presence or absence of test compound.

Assay [2] concerns the target T2, 5-LO (Rattus norvegicus, UniProt P12527).
T2 construct: the supernatant was saved as the source of enzymes; endogenous in cells; host or cells: RBL-1 (rat basophilic leukemia) cells
T2 sequence (P12527 1-673): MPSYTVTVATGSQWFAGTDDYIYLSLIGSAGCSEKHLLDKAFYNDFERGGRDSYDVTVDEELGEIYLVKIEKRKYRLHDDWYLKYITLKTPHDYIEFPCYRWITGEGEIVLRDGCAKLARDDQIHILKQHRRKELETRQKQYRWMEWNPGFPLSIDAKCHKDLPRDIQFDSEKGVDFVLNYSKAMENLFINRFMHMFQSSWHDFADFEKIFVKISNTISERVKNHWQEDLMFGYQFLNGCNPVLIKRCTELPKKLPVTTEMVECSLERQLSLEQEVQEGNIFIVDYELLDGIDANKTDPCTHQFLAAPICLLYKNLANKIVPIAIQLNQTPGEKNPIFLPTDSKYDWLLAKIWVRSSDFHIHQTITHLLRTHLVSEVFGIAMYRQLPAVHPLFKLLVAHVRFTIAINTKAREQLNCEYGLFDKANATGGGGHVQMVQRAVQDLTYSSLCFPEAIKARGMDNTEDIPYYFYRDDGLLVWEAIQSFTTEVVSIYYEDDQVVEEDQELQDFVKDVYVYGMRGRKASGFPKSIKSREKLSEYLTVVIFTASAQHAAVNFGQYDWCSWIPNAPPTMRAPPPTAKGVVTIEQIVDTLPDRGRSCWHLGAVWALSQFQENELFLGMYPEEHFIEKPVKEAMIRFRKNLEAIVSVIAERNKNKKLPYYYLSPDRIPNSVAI
The assay can be described thus: Procedure III: 5-LO (5-HETE) in intact RBL-1 cells. The conditions noted are these: calcium ionophore A 23187, read-out: Proc. III 5-LO IC50. Type of assay: cell-based. The method, then:
(§1) The IC50 was determined using a curve fit in Cricket Graph (Computer Associated), which provided the equation of the regressed line used in the calculation.
In Procedure III, the ability to inhibit 5-LO and CO in intact RBL-1 cells was also evaluated. […] Cells were collected by centrifugation, washed once in HBSS, and resuspended at a concentration of 1×10^5 cells/mL. Cells were incubated in the presence of vehicle or drug then centrifuged at 800×g for 10 minutes at 4° C. The supernatant was removed by aspiration and the cells were resuspended in 0.5 mL of HBSS. […] The conversion of AA to 5-LO products was initiated by the addition of 10 μL (50 μCi) of 1-^14 C-AA. Products were isolated by acidification and extraction, followed by thin layer chromatography analysis as described above. Radioactive areas corresponding to authentic 5-LO (5-HETE) and CO (PgD2) products were quantitated by the Bioscan 2000 Imaging System and the IC50 was calculated as above.

For another assay, the target named is T3, CO (Rattus norvegicus, UniProt Q63921).
T3 construct: the supernatant was saved as the source of enzymes; endogenous in cells; host or cells: RBL-1 (rat basophilic leukemia) cells
T3 sequence (Q63921 27-602): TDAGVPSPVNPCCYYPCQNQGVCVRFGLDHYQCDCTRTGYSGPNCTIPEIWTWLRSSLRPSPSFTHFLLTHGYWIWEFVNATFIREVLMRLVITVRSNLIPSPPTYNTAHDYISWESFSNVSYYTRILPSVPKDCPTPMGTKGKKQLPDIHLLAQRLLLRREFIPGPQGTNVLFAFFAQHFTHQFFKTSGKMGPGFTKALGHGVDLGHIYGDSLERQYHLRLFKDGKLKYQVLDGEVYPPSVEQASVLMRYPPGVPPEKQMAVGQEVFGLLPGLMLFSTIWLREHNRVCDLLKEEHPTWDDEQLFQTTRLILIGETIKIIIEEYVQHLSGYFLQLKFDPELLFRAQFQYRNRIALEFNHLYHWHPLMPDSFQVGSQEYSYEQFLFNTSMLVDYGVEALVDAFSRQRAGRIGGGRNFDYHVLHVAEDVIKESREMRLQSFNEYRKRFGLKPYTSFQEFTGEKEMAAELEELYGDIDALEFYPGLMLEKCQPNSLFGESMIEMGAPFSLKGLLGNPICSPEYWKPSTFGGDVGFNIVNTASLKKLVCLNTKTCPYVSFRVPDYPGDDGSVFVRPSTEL
The assay can be described thus: Procedure II: CO activity in broken RBL-1 cells (homogenate supernatant). Type of assay: biochemical. The conditions noted are these: 20 min; @ 10 .quadrature.M; RBL-1 broken cell supernatant; read-out: Proc. II CO % inhibition. The method, then:
(§2) Procedure II was used to assess LO and CO activity. Rat basophilic leukemia cells (RBL-1; 5×10^7 viable cells/mL) were disrupted by homogenization on ice (four 20 sec bursts) with a Brinkman polytron. […] The homogenate was then centrifuged at 9,220×g for 48 minutes at 4° C. The pellet was discarded and the supernatant was saved as the source of enzymes. The supernatant was pre-incubated for five minutes at 37° C. in the presence of 2 mM of CaCl2 and compound or vehicle (1% DMSO). The conversion of AA into products by CO and LO was initiated by adding 10 μL (50 μCi) of 1-^14 C-AA to each tube and incubated at 37° C. for 20 minutes. The reaction was stopped by adjusting the pH of each sample to 3 to 3.5 with 2M formic acid. Samples were extracted with three volumes of chloroform to isolate the products of 5-LO formed during the reaction. Fractions were dried under nitrogen, then resuspended in 40 μL of chloroform and spotted onto silica gel HL plates. The plates were developed in A-9 solvent. The dried plates were analyzed using a Bioscan Imaging TLC scanner to determine the percentage of radiolabelled AA converted to 5-HETE (LO product) in each sample. The percentage of inhibition was calculated by:
(§3) [1-(5-HETE test)]/5-HETE control×100=% inhibition
as §1

Assay [3] has as its target T2, 5-LO. The assay can be described thus: Procedure II: 5-LO activity (5-HETE) in broken RBL-1 cells (homogenate supernatant). The format is biochemical. The conditions noted are these: RBL-1 broken cell supernatant; for inhibition at 10 µM: 20 min, @ 10 .quadrature.M, read-out: Proc. II 5-LO % inhibition. The method, then:
as §2, §3, §1

Where [4] appears, read: @ 10 .quadrature.M, SSV cyclooxygenase.

Turning to `COc1ccc(-n2nc(C#CCN(O)C(N)=O)cc2-c2ccc(Cl)cc2)cc1` [Cpd 5, N-hydroxy-N-(1-(5-(4-chlorophenyl)-1-(4-methoxyphenyl)pyrazol-3-yl)-1-propyn-3-yl)urea], the inhibition (usually the share of the control response that was lost under treatment) at 10 µM in assay [1] (setting [4]) stood at 9%; at CO it was 0%. Also, the concentration for half-maximal inhibition (IC50) (commonly the point on the concentration scale where inhibition reaches its midpoint) on 5-LO [2] was 900 nM; at 5-LO [3] (read-out: Proc. II 5-LO IC50) it was 80 nM.

On to `CNC(=O)N(O)C(C)C#Cc1cc(-c2ccc(Cl)cc2)n(-c2ccc(OC)cc2)n1` (stereo not drawn) [Cpd 7], for which the inhibition at 10 µM in assay [1] (setting [4]) came out at 5%; on CO it was 0%; on 5-LO [3], 79%.

For `CCCNC(=O)N(O)C(C)C#Cc1cc(-c2ccc(Cl)cc2)n(-c2ccc(OC)cc2)n1` (stereo not drawn) [Cpd 8], the inhibition at 10 µM in assay [1] (setting [4]) was determined as 14%; on CO, 32%; at 5-LO [3] it was 82%. Also, on 5-LO [2], the IC50 turned out to be 2800 nM.

In the case of `COc1ccc(-n2nc(C#CC(C)N(O)C(=O)N3CCCCC3)cc2-c2ccc(Cl)cc2)cc1` (stereo not drawn) [Cpd 9], the inhibition at 10 µM in assay [1] worked out at 44%; at 5-LO [3], 76%. For the same molecule, the 50% inhibitory concentration (IC50) at 5-LO [2] amounted to 8000 nM.

For `COc1ccc(-n2nc(C#CCN(O)C(=O)c3ccccc3)cc2-c2ccc(C)cc2)cc1` [Cpd 15], the inhibition at 10 µM in assay [1] was 52%; on 5-LO [3], 100%. Also, the concentration for half-maximal inhibition (IC50) on 5-LO [2] is 8000 nM.

With `CCC(=O)N(O)C(C)C#Cc1cc(-c2ccc(C)cc2)n(-c2ccc(OC)cc2)n1` (stereo not drawn) [Cpd 19], the results for the inhibition at 10 µM (in assay [1] (setting [4]); at CO; on 5-LO [3]) were 76%, 67% and 93%, respectively.

In the case of `COc1ccc(-n2nc(C#CC(C)N(O)C(=O)c3ccco3)cc2-c2ccc(C)cc2)cc1` (stereo not drawn) [Cpd 25, N-(furan-2-carbonyl)-N-(1-(1-(4-methoxyphenyl)-5-(4-methylphenyl)pyrazol-3-yl)-1-butyn-3-yl)hydroxylamine], the IC50 in assay [1] (SSV cyclooxygenase, read-out: Proc. I IC50) came out at 1300 nM. For the same molecule, the values for the inhibition at 10 µM on CO and at 5-LO [3] were 61% and 70%, respectively.

`CCc1ccc(-c2cc(C#CC(C)N(O)C(=O)CCC(=O)O)nn2-c2ccc(OC)cc2)cc1` (stereo not drawn) [Cpd 33]: the inhibition at 10 µM in assay [1] (setting [4]) was found to be 0%; on CO, 0%; at 5-LO [3] it was 37%.

For `CCC(=O)N(O)C(C)C#Cc1cc(-c2ccc(Cl)cc2)n(-c2ccc(OC)cc2)n1` (stereo not drawn) [Cpd 36], the inhibition at 10 µM on CO and at 5-LO [3] was 100% throughout.

Turning to `COc1ccc(-n2nc(C#CC(C)N(O)C(=O)C(C)C)cc2-c2ccc(Cl)cc2)cc1` (stereo not drawn) [Cpd 37], the results for the inhibition at 10 µM on CO and at 5-LO [3] were 80% and 100%, respectively.

Turning to `CCCCCCCC(=O)N(O)C(C)C#Cc1cc(-c2ccc(Cl)cc2)n(-c2ccc(OC)cc2)n1` (stereo not drawn) [Cpd 38], the figures for the inhibition at 10 µM (in assay [1] (setting [4]); at CO; on 5-LO [3]) were 31%, 21% and 100%, respectively.

Take `COc1ccc(-n2nc(C#CC(C)N(O)C(=O)CCC(=O)O)cc2-c2ccc(Cl)cc2)cc1` (stereo not drawn) [Cpd 39]: the figures for the inhibition at 10 µM (in assay [1] (setting [4]); at CO; at 5-LO [3]) were 0%, 0% and 74%, respectively.

Take `COc1ccc(-n2nc(C#CC(C)N(O)C(=O)CNCCCN(C)C)cc2-c2ccc(C)cc2)cc1` (stereo not drawn) [Cpd 42]: the inhibition at 10 µM in assay [1] (setting [4]) was found to be 0%; at CO it was 14%; on 5-LO [3], 29%.

On to `CCc1ccc(-c2cc(C#CC(C)N(O)C(=O)CN3CCOCC3)nn2-c2ccc(OC)cc2)cc1` (stereo not drawn) [Cpd 44], for which the figures for the inhibition at 10 µM (in assay [1] (setting [4]); on CO; at 5-LO [3]) were 0%, 0% and 93%, respectively.

`CCc1ccc(-c2cc(C#CC(C)N(O)C(=O)CN3CCN(C)CC3)nn2-c2ccc(OC)cc2)cc1` (stereo not drawn) [Cpd 45, N-(4-methylpiperazin-1-yl)acetyl-N-(1-[5-(4-ethylphenyl)-1-(4-methoxyphenyl)pyrazol-3-yl]-1-butyn-3-yl)hydroxylamine]: the inhibition at 10 µM in assay [1] (setting [4]) came out at 0%; at CO, 11%; on 5-LO [3] it was 25%.
